Test results as given in patent US10010545B1, “Antibiotic compositions and methods of use” (University of South Florida, priority 2013, dated 2018).

How the values were obtained:
Enterococcus faecium = assay: Growth testing against ESKAPE pathogens: Enterococcus faecium; assay type: cell-based; design: key: Growth; X: No Growth
Experimental: (§1) Six analogs (FIG. 2) of the ciprofloxacin-N thiolated β-lactam were successfully synthesized. All these compounds were then tested against ESKAPE pathogens for bioactivity. The ESKAPE pathogens are a collection of six deadly superbugs, Enterococcus faecium, Staphylococcus aureus, Klebsiella pneumoniae, Acinetobacter baumannii, Pseudomonas aeruginosa, and Enterobacter species. […] G denotes growth and X denotes no growth in the tables.

Staphylococcus aureus = assay: Growth testing against ESKAPE pathogens: Staphylococcus aureus; assay type: cell-based; design: key to Activity against Staphylococcus aureus (growth observed): Growth; X: No Growth
Experimental: as §1

Klebesiella pneumonia = assay: Growth testing against ESKAPE pathogens: Klebesiella pneumonia; assay type: cell-based, Klebsiella pneumoniae; design: key: Growth; X: No Growth
Experimental: as §1

Acinetobacter baumannii = assay: Growth testing against ESKAPE pathogens: Acinetobacter baumannii; assay type: cell-based; design: key: Growth; X: No Growth
Experimental: as §1

Pseudomonas aeruginosa = assay: Growth testing against ESKAPE pathogens: Pseudomonas aeruginosa; assay type: cell-based; design: key: Growth; X: No Growth
Experimental: as §1

CCCCCC(=O)N1CCN(c2cc3c(cc2F)c(=O)c(C(=O)OC2C(=O)N(SC)C2c2ccccc2)cn3C2CC2)CC1 (centres unmarked) [Lactam 126]
G: Activity against Enterococcus faecium (growth observed) (Enterococcus faecium; 1 μg/ml) | Activity against Enterococcus faecium (growth observed) (Enterococcus faecium; 2 μg/ml) | Activity against Enterococcus faecium (growth observed) (Enterococcus faecium; 3 μg/ml) | Activity against Enterococcus faecium (growth observed) (Enterococcus faecium; 4 μg/ml) | Activity against Enterococcus faecium (growth observed) (Enterococcus faecium; 5 μg/ml) | Activity against Enterococcus faecium (growth observed) (Enterococcus faecium; 6 μg/ml) | Activity against Enterococcus faecium (growth observed) (Enterococcus faecium; 7 μg/ml) | Activity against Enterococcus faecium (growth observed) (Enterococcus faecium; 8 μg/ml) | Activity against Enterococcus faecium (growth observed) (Enterococcus faecium; 9 μg/ml) | Activity against Enterococcus faecium (growth observed) (Enterococcus faecium; 10 μg/ml) | Activity against Enterococcus faecium (growth observed) (Enterococcus faecium; 25 μg/ml) | Activity against Staphylococcus aureus (growth observed) (Staphylococcus aureus; 1 μg/ml) | Activity against Staphylococcus aureus (growth observed) (Staphylococcus aureus; 2 μg/ml) | Activity against Staphylococcus aureus (growth observed) (Staphylococcus aureus; 3 μg/ml) | Activity against Staphylococcus aureus (growth observed) (Staphylococcus aureus; 4 μg/ml) | Activity against Staphylococcus aureus (growth observed) (Staphylococcus aureus; 5 μg/ml) | Activity against Staphylococcus aureus (growth observed) (Staphylococcus aureus; 6 μg/ml) | Activity against Staphylococcus aureus (growth observed) (Staphylococcus aureus; 7 μg/ml) | Activity against Staphylococcus aureus (growth observed) (Staphylococcus aureus; 8 μg/ml) | Activity against Staphylococcus aureus (growth observed) (Staphylococcus aureus; 9 μg/ml) | Activity against Staphylococcus aureus (growth observed) (Staphylococcus aureus; 10 μg/ml) | Activity against Staphylococcus aureus (growth observed) (Staphylococcus aureus; 25 μg/ml) | Activity against Klebesiella pneumonia (growth observed) (Klebesiella pneumonia; 1 μg/ml) | Activity against Klebesiella pneumonia (growth observed) (Klebesiella pneumonia; 2 μg/ml) | Activity against Klebesiella pneumonia (growth observed) (Klebesiella pneumonia; 3 μg/ml) | Activity against Klebesiella pneumonia (growth observed) (Klebesiella pneumonia; 4 μg/ml) | Activity against Klebesiella pneumonia (growth observed) (Klebesiella pneumonia; 5 μg/ml) | Activity against Klebesiella pneumonia (growth observed) (Klebesiella pneumonia; 6 μg/ml) | Activity against Klebesiella pneumonia (growth observed) (Klebesiella pneumonia; 7 μg/ml) | Activity against Klebesiella pneumonia (growth observed) (Klebesiella pneumonia; 8 μg/ml) | Activity against Klebesiella pneumonia (growth observed) (Klebesiella pneumonia; 9 μg/ml) | Activity against Klebesiella pneumonia (growth observed) (Klebesiella pneumonia; 10 μg/ml) | Activity against Klebesiella pneumonia (growth observed) (Klebesiella pneumonia; 25 μg/ml) | Activity against Acinetobacter baumannii (growth observed) (Acinetobacter baumannii; 1 μg/ml) | Activity against Acinetobacter baumannii (growth observed) (Acinetobacter baumannii; 2 μg/ml) | Activity against Acinetobacter baumannii (growth observed) (Acinetobacter baumannii; 3 μg/ml) | Activity against Acinetobacter baumannii (growth observed) (Acinetobacter baumannii; 4 μg/ml) | Activity against Acinetobacter baumannii (growth observed) (Acinetobacter baumannii; 5 μg/ml) | Activity against Acinetobacter baumannii (growth observed) (Acinetobacter baumannii; 6 μg/ml) | Activity against Acinetobacter baumannii (growth observed) (Acinetobacter baumannii; 7 μg/ml) | Activity against Acinetobacter baumannii (growth observed) (Acinetobacter baumannii; 8 μg/ml) | Activity against Acinetobacter baumannii (growth observed) (Acinetobacter baumannii; 9 μg/ml) | Activity against Acinetobacter baumannii (growth observed) (Acinetobacter baumannii; 10 μg/ml) | Activity against Acinetobacter baumannii (growth observed) (Acinetobacter baumannii; 25 μg/ml) | Activity against Pseudomonas aeruginosa (growth observed) (Pseudomonas aeruginosa; 1 μg/ml) | Activity against Pseudomonas aeruginosa (growth observed) (Pseudomonas aeruginosa; 2 μg/ml) | Activity against Pseudomonas aeruginosa (growth observed) (Pseudomonas aeruginosa; 3 μg/ml) | Activity against Pseudomonas aeruginosa (growth observed) (Pseudomonas aeruginosa; 4 μg/ml) | Activity against Pseudomonas aeruginosa (growth observed) (Pseudomonas aeruginosa; 5 μg/ml) | Activity against Pseudomonas aeruginosa (growth observed) (Pseudomonas aeruginosa; 6 μg/ml) | Activity against Pseudomonas aeruginosa (growth observed) (Pseudomonas aeruginosa; 7 μg/ml) | Activity against Pseudomonas aeruginosa (growth observed) (Pseudomonas aeruginosa; 8 μg/ml) | Activity against Pseudomonas aeruginosa (growth observed) (Pseudomonas aeruginosa; 9 μg/ml) | Activity against Pseudomonas aeruginosa (growth observed) (Pseudomonas aeruginosa; 10 μg/ml) | Activity against Pseudomonas aeruginosa (growth observed) (Pseudomonas aeruginosa; 25 μg/ml)

CCCCCCC(=O)N1CCN(c2cc3c(cc2F)c(=O)c(C(=O)OC2C(=O)N(SC)C2c2ccccc2)cn3C2CC2)CC1 (centres unmarked) [Lactam 127]
G: Activity against Enterococcus faecium (growth observed) (Enterococcus faecium; 1 μg/ml) | Activity against Enterococcus faecium (growth observed) (Enterococcus faecium; 2 μg/ml) | Activity against Enterococcus faecium (growth observed) (Enterococcus faecium; 3 μg/ml) | Activity against Enterococcus faecium (growth observed) (Enterococcus faecium; 4 μg/ml) | Activity against Enterococcus faecium (growth observed) (Enterococcus faecium; 5 μg/ml) | Activity against Enterococcus faecium (growth observed) (Enterococcus faecium; 6 μg/ml) | Activity against Enterococcus faecium (growth observed) (Enterococcus faecium; 7 μg/ml) | Activity against Enterococcus faecium (growth observed) (Enterococcus faecium; 8 μg/ml) | Activity against Enterococcus faecium (growth observed) (Enterococcus faecium; 9 μg/ml) | Activity against Enterococcus faecium (growth observed) (Enterococcus faecium; 10 μg/ml) | Activity against Enterococcus faecium (growth observed) (Enterococcus faecium; 25 μg/ml) | Activity against Staphylococcus aureus (growth observed) (Staphylococcus aureus; 1 μg/ml) | Activity against Staphylococcus aureus (growth observed) (Staphylococcus aureus; 2 μg/ml) | Activity against Staphylococcus aureus (growth observed) (Staphylococcus aureus; 3 μg/ml) | Activity against Staphylococcus aureus (growth observed) (Staphylococcus aureus; 4 μg/ml) | Activity against Staphylococcus aureus (growth observed) (Staphylococcus aureus; 5 μg/ml) | Activity against Staphylococcus aureus (growth observed) (Staphylococcus aureus; 6 μg/ml) | Activity against Staphylococcus aureus (growth observed) (Staphylococcus aureus; 7 μg/ml) | Activity against Staphylococcus aureus (growth observed) (Staphylococcus aureus; 8 μg/ml) | Activity against Staphylococcus aureus (growth observed) (Staphylococcus aureus; 9 μg/ml) | Activity against Staphylococcus aureus (growth observed) (Staphylococcus aureus; 10 μg/ml) | Activity against Staphylococcus aureus (growth observed) (Staphylococcus aureus; 25 μg/ml) | Activity against Klebesiella pneumonia (growth observed) (Klebesiella pneumonia; 1 μg/ml) | Activity against Klebesiella pneumonia (growth observed) (Klebesiella pneumonia; 2 μg/ml) | Activity against Klebesiella pneumonia (growth observed) (Klebesiella pneumonia; 3 μg/ml) | Activity against Klebesiella pneumonia (growth observed) (Klebesiella pneumonia; 4 μg/ml) | Activity against Klebesiella pneumonia (growth observed) (Klebesiella pneumonia; 5 μg/ml) | Activity against Klebesiella pneumonia (growth observed) (Klebesiella pneumonia; 6 μg/ml) | Activity against Klebesiella pneumonia (growth observed) (Klebesiella pneumonia; 7 μg/ml) | Activity against Klebesiella pneumonia (growth observed) (Klebesiella pneumonia; 8 μg/ml) | Activity against Klebesiella pneumonia (growth observed) (Klebesiella pneumonia; 9 μg/ml) | Activity against Klebesiella pneumonia (growth observed) (Klebesiella pneumonia; 10 μg/ml) | Activity against Klebesiella pneumonia (growth observed) (Klebesiella pneumonia; 25 μg/ml) | Activity against Acinetobacter baumannii (growth observed) (Acinetobacter baumannii; 1 μg/ml) | Activity against Acinetobacter baumannii (growth observed) (Acinetobacter baumannii; 2 μg/ml) | Activity against Acinetobacter baumannii (growth observed) (Acinetobacter baumannii; 3 μg/ml) | Activity against Acinetobacter baumannii (growth observed) (Acinetobacter baumannii; 4 μg/ml) | Activity against Acinetobacter baumannii (growth observed) (Acinetobacter baumannii; 5 μg/ml) | Activity against Acinetobacter baumannii (growth observed) (Acinetobacter baumannii; 6 μg/ml) | Activity against Acinetobacter baumannii (growth observed) (Acinetobacter baumannii; 7 μg/ml) | Activity against Acinetobacter baumannii (growth observed) (Acinetobacter baumannii; 8 μg/ml) | Activity against Acinetobacter baumannii (growth observed) (Acinetobacter baumannii; 9 μg/ml) | Activity against Acinetobacter baumannii (growth observed) (Acinetobacter baumannii; 10 μg/ml) | Activity against Acinetobacter baumannii (growth observed) (Acinetobacter baumannii; 25 μg/ml) | Activity against Pseudomonas aeruginosa (growth observed) (Pseudomonas aeruginosa; 1 μg/ml) | Activity against Pseudomonas aeruginosa (growth observed) (Pseudomonas aeruginosa; 2 μg/ml) | Activity against Pseudomonas aeruginosa (growth observed) (Pseudomonas aeruginosa; 3 μg/ml) | Activity against Pseudomonas aeruginosa (growth observed) (Pseudomonas aeruginosa; 4 μg/ml) | Activity against Pseudomonas aeruginosa (growth observed) (Pseudomonas aeruginosa; 5 μg/ml) | Activity against Pseudomonas aeruginosa (growth observed) (Pseudomonas aeruginosa; 6 μg/ml) | Activity against Pseudomonas aeruginosa (growth observed) (Pseudomonas aeruginosa; 7 μg/ml) | Activity against Pseudomonas aeruginosa (growth observed) (Pseudomonas aeruginosa; 8 μg/ml) | Activity against Pseudomonas aeruginosa (growth observed) (Pseudomonas aeruginosa; 9 μg/ml) | Activity against Pseudomonas aeruginosa (growth observed) (Pseudomonas aeruginosa; 10 μg/ml) | Activity against Pseudomonas aeruginosa (growth observed) (Pseudomonas aeruginosa; 25 μg/ml)
